This is an account of results in PubChem BioAssay (NCI).

Holding throughout (assay): NCI-60 cell line screen, 48 h
The test system of assay [1] is ACHN renal.
In assay [2] the test system is BT-549 breast.
For assay [3], the system named is HL-60(TB) leukemia.
Assay [4] deals with HT29 colon.
The subject of assay [5] is MALME-3M melanoma.
Assay [6] has as its system RPMI-8226 leukemia.
In assay [7] the test system is SK-MEL-5 melanoma.
Assay [8] concerns SN12C renal.
Assay [9] concerns SNB-75 CNS.
In assay [10] the test system is COLO 205 colon.

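Where inhibition never reached the appropriate level, the endpoint shown equals the highest concentration tested. Otherwise, values were interpolated linearly from a five-concentration, 48-hour dose response in 96-well plates. The concentration for 50% growth inhibition is given as GI50. TGI marks complete inhibition of growth.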

Regarding `Cc1c2c(n3c(nc4ccccc43)c1C#N)SCC2`, the TGI in assay [1], in assay [2], in assay [3], in [4], in assay [5] and in [6] was above 10 µM in each case. The TGI in assay [7], in assay [8] and in assay [9] was above 10 µM each time.
On to `CCOC(=O)c1cc2c(n1Cc1cccc(OC)c1)-c1oncc1CC2`, for which the GI50 is 2.66 µM in [1]; 0.508 µM in assay [10]; 0.297 µM in assay [3]; 0.37 µM in assay [4]; 0.571 µM in assay [5]; 3.52 µM in [6]. For the same molecule, the GI50 in [7] is 0.595 µM; in assay [8] it was 13.5 µM; in assay [9] it was 0.399 µM. Also, the TGI was above 100 µM in assay [1]; 3.99 µM in [10]; 1.63 µM in assay [3]; 15.8 µM in assay [4]; 76.5 µM in assay [5]; above 100 µM in assay [6]. Further, the results for the TGI in [7], in assay [8] and in assay [9] were 11.3 µM, above 100 µM and 3.03 µM, respectively.
With `Clc1ccc(Cl)c(N/N=C\c2c[nH]c3ccccc23)c1`, the GI50 in [1] was 12 µM; in [2] it was 0.196 µM; in assay [10], 14 µM; in assay [5], 20.3 µM; in assay [6] it was 6.16 µM; in assay [7] it was 10 µM. For the same molecule, in assay [8], the GI50 is 7.15 µM. Besides, the TGI in assay [1] was determined as 32.6 µM; in assay [2], 16.9 µM; in [10], 30.4 µM; in assay [5], 39.8 µM; in [6] it was 26.1 µM; in assay [7], 23.1 µM. The molecule further came in with a TGI in assay [8] of 22.3 µM.
For `Nc1nc2nc3c(nc2c(=O)[nH]1)CN(c1ccc(C(=O)O)cc1)C3=O`, the TGI in [1], in assay [2], in [10], in assay [4], in [5] and in [6] was above 100 µM throughout. Also, the TGI in assay [7], in assay [8] and in [9] was above 100 µM in each case.
As to `CC(=O)O[C@@H]1C=CC(=O)C2(CC(=O)O[C@@H]2/C=C(\C)CCC=C(C)C)C1` (stereo partly specified), the GI50 in assay [1] is 1.16 µM; in assay [2], 1.15 µM; in assay [10], 2.24 µM; in assay [3], 0.184 µM; in assay [4] it was 0.529 µM; in [7] it was 1.31 µM. For the same molecule, the GI50 in [8] is 0.997 µM; in assay [9], 1.33 µM. The TGI was 2.43 µM in [1]; 3.54 µM in [2]; 10.3 µM in assay [10]; 0.557 µM in assay [3]; 73.9 µM in [4]; 3.1 µM in assay [7]. Also, the TGI in assay [8] came out at 2.27 µM; in assay [9], 2.83 µM.
Regarding `C=C1C(=O)OC2C1C(OC(=O)/C(=C/C)COC(C)=O)CC1(CO1)C1C(OC(=O)/C(=C/C)CO)C=C(C)C21` (stereo unspecified), the TGI in assay [1] came to 4.4 µM; in assay [10], 2.3 µM; in assay [3], 2.34 µM; in [4] it was 7.48 µM; in assay [5] it was 3.32 µM; in assay [6], 6.56 µM. Besides, the TGI amounted to 5.05 µM in assay [7], 3.81 µM in assay [8] and 15.6 µM in assay [9].
On to `C1=C[C@@H]2c3ccc4cnccc4c3NC[C@@H]2C1`, for which the TGI in assay [1], in assay [2], in [10], in assay [3], in [5] and in assay [6] was above 100 µM in each case. For the same molecule, the TGI in assay [7], in [8] and in assay [9] was above 100 µM throughout.
Turning to `Cc1cc2c(-c3nc4ccccc4[nH]3)c(O)c(O)cc2c(O)c1-c1c(C)cc2c(-c3nc4ccccc4[nH]3)c(O)c(O)cc2c1O`, the GI50 was 0.0292 µM in assay [1]; 0.0235 µM in [2]; 0.0231 µM in [10]; 0.0328 µM in assay [3]; 0.0217 µM in [4]; 0.0321 µM in assay [5]. The figures for the GI50 in assay [6], in [8] and in assay [9] were 0.0323 µM, 0.0272 µM and 0.0389 µM, respectively. The TGI in assay [1] is 0.697 µM; in assay [2] it was 1.13 µM; in [10] it was 0.913 µM; in [3], above 50 µM; in assay [4], above 24.4 µM; in [5], 2.26 µM. Besides, the results for the TGI in assay [6], in assay [8] and in [9] were 22.3 µM, 8.08 µM and 2.11 µM, respectively.
On to `CCCOC(=O)C1CCC(=O)N1C(=O)C(Cl)Cl` (stereo unspecified), for which the TGI in assay [1], in assay [10], in [3], in [4], in [5] and in assay [6] was above 100 µM each time. The TGI in [7], in assay [8] and in assay [9] was above 100 µM in each case.
For the molecule `CCCCC1(N=[N+]=[N-])C(=O)c2cccc3c2N(CCC3)C1=O` (stereo unspecified), the TGI in assay [1], in [2], in assay [10], in assay [4], in assay [5] and in assay [6] was above 100 µM each time. The TGI in assay [7], in assay [8] and in assay [9] was above 100 µM each time.
For `COc1ccc([C@H]2c3cc(OC)c(OC)cc3C=C(C=O)C2CO)cc1OC` (stereo partly specified), the GI50 in assay [1] was 7.53 µM; in assay [2], above 100 µM; in assay [10], 3.91 µM; in [3], 3.65 µM; in assay [5], 1.84 µM; in [6], 9.22 µM. Also, the GI50 in assay [7] was 3.51 µM; in [8] it was 5.7 µM. Also, the TGI in assay [1] was above 100 µM; in assay [2], above 100 µM; in assay [10], 17.9 µM; in assay [3] it was above 100 µM; in assay [5] it was 7.43 µM; in assay [6] it was above 100 µM. Also, the TGI in assay [7] and in assay [8] was above 100 µM in each case.
